ChEMBL document CHEMBL1201862, “PubChem BioAssay data set” (2004)
Activity calls are given as the source filed them. No rule for the calls is given here.

How the values were obtained:
[1] = P. falciparum Dd2 growth inhibitors, dose response, SYBR Green, dry powder samples, set 9 (AID 1159568); type: functional, cell-based
HEK293 = assay: cells; type: functional, cell-based; settings: Homo sapiens
[2] = biological target: T1, Nuclear receptor subfamily 0 group B member 1 (Homo sapiens, UniProt P51843); assay: Luminescence-based cell-based high throughput dose response assay for inhibitors of the orphan nuclear receptor subfamily 0, group B, member 1 (DAX1; NR0B1). [Related pubchem assays (depositor defined):AID504766, AID504790]; type: functional
T1 sequence (P51843 whole entry): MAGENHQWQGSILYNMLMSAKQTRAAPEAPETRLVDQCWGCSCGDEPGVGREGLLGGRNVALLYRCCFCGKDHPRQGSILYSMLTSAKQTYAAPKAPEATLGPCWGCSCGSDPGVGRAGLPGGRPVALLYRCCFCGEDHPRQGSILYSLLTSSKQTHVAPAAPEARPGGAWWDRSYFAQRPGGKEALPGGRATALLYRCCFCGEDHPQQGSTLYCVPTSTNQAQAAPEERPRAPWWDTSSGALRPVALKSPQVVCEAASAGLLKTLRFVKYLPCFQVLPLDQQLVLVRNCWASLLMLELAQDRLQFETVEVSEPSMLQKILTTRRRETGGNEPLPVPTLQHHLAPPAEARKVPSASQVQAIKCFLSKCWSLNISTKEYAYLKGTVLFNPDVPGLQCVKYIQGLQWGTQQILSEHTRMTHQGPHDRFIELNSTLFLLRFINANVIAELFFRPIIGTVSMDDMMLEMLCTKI

[3] = biological target: Heat shock protein HSP 90-alpha (Homo sapiens, UniProt P07900); type: functional, organism-based
Albumin = Albumin (Bos taurus, UniProt P02769); assay: Counterscreen for inhibitors of T-cell receptor (TCR)-CD3 interaction: Fluorescence-based biochemical high throughput dose response assay to identify inhibitors of T-cell receptor (TCR)-CD3 interaction using a TAMRA-labeled BSA probe.; type: functional
Albumin, sequence (P02769 whole entry): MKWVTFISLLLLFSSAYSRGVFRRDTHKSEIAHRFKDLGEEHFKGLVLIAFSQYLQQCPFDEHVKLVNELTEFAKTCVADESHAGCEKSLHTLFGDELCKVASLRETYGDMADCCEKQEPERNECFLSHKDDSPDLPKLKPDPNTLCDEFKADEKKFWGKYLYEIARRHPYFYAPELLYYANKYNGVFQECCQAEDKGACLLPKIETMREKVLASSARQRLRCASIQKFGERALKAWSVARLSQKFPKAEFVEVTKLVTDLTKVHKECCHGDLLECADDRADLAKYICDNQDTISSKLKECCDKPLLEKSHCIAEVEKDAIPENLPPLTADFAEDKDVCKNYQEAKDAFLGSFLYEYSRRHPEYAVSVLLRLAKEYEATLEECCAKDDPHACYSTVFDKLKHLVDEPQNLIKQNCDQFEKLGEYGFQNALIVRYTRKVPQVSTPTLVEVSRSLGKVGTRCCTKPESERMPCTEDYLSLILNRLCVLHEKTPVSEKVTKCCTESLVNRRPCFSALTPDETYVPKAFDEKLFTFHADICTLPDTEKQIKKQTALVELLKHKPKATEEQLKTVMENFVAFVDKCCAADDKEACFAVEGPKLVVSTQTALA

AC50 [3]	Compound	AC50 [1]	also measured
–	O=C(Nc1cc(F)ccc1F)N1CCCCN2[C@H](CO)[C@H](c3ccc(C4=CCCCC4)cc3)[C@@H]2C1	12.2 µM (active)	–
–	Cc1ccc(OCC(=O)NC(=S)Nc2cccc(C)n2)cc1	–	IC50 (HEK293): > 67.5 µM (inactive); IC50 [2]: > 67.5 µM (inactive)
3.59 µM (active)	N=C(Cc1ccc(Cl)cc1Cl)NOC(=O)c1cccs1	–	–
–	CCn1c(C)nc2cc(C(=O)NNC(=S)NC(=O)c3ccccc3)ccc21	–	IC50 (Albumin): > 94.1 µM (inactive)
–	C[C@@H]1CCCCO[C@@H](CN(C)S(=O)(=O)c2ccccc2)[C@H](C)CN([C@H](C)CO)C(=O)c2cc(NC(=O)Nc3ccc4c(c3)OCO4)ccc2O1	1.17 µM (active)	–
7.55 µM (active)	Nc1cccc(Oc2c(F)c(F)c(Oc3cccc(N)c3)c(F)c2F)c1	–	–
